Where two headings read alike, the source gives them in different places.
Tests used:
PC-3 cells [1] = assay: MTT assay of cell proliferation, PC-3 cells; assay type: cell-based; details: Homo sapiens, read-out: IC50 inhibiting cell proliferation
Protocol: The inhibitive effects of fangchinoline on proliferation of PC-3 cells or LnCap cells was observed by checking cell viability of cells using MTT assay as described before. Briefly, cells were seeded in 96-well plates at a density of 5×10^4 cells/mL for PC-3 cell and 4×10^4 cells/mL for LnCap cells. After overnight culture, the media were changed into fresh media containing various concentrations of fangchinoline or 0.1% DMSO (solvent control) for 24, 48 h or 72 h. Cell viability was evaluated by measuring the mitochondrial-dependent conversion of the yellow tetrazolium salt MTT to purple formazan crystals by metabolic active cells. The optical density (proportional to the number of live cells) was assessed with a Microplate Reader Bio-Rad 550 at 570 nm. IC50 value (half-maximal inhibitory concentration) was calculated by the Logit method.

PC-3 cells [2] = assay: Flow cytometric analysis of apoptosis (Annexin V/PI) in PC-3 cells; assay type: cell-based, human; details: 24 h
Protocol: The induction of cell cycle arrest and apoptosis by fangchinoline in PC-3 cells was observed by using flow cytometric analysis as described in our previous reports. Briefly, for flow cytometry analysis of cell cycle, cells were collected after treatment, washed with PBS and then fixed with 70% ethanol at 4°C for overnight. After PBS washes, cells were re-suspended in staining buffer (10 mg/mL RNase A and […] propidium iodide in cold PBS) for 30 min in dark at room temperature and then analyzed using FACSCalibur Flow Cytometer. For flow cytometric analysis of apoptosis, Alexa Fluor 488 Annexin V & PI /Dead cell Apoptosis Kit (Invitrogen) was used. Cells were collected after treatment, washed with PBS and then resuspended in binding buffer and then incubated with Annexin V-FITC and propidium iodide for 15 min in dark at room temperature. Then, flow cytometric analysis was conducted and data analysis was performed with CellQuest software.

PC-3 tumor xenografts = assay: PC-3 tumor xenograft experiments (tumor volume, TUNEL); assay type: in vivo, nude mice
Protocol: Male nude immunodeficient mice Balb/c-nu-nu, aged 4 weeks, were purchased from Shanghai Experimental Animal Center. All procedures involving animals were approved by the Institutional Animal Care and Use Committee of Shanghai Institute of Materia Medica, Chinese Academy of Sciences. On day 0, PC-3 cells (8×10^6 cells) suspended in 0.2 mL of serum-free RPMI 1640 were inoculated s.c. in the right flank of each mouse (six mice per group). 14 days after inoculation, mice were randomly divided into 3 groups and started injection with either vehicle control or fangchinoline at 25 mg/kg (ip., QD) or 50 mg/kg (ip., QD). Tumor sizes were measured every 4 days using calipers and their volumes were calculated using a standard formula: width^2×length/2. The relative tumor volume (RTV) was defined as the ratio of the tumor volume at a indicated time and the tumor volume at the start of drug treatment. Body weight was measured daily. On day 30 after inoculation, mice were sacrificed by CO2 inhalation and tumor xenografts were dissected. To visualize apoptosis in tumor xenografts, TUNEL labeling was conducted to detect apoptotic nuclei using In Situ Death Detection Kit (Roche Molecular Biochemicals). Briefly, tumor xenografts were fixed with 10% formalin solution at room temperature for 24 h and then embedded by paraffin. Specimens were heated for 1h by Water Bath-Slide Drier (LEICA H1 1220, German), incubated with dimethylbenzene for two times (8 min each) and then incubated with 100%, 95%, 90% and 85% ethanol for two times (3 min each). Specimens were then incubated with 0.1M Citrate buffer (pH 6.0) for microwave irradiation. After washing with PBS for two times (3 min each), slices were incubated with reaction buffer (from the In Situ Death Detection Kit) in a humid atmosphere at 37°C for 1 h. Slices were then washed with PBS three times (3 min each) to remove unincorporated fluorescein–deoxyuridine triphosphate. Nuclei were counterstained with 4,6-diamidino-2-phenylindole (DAPI) 1 μg/mL for 3 min and then washed with PBS for three times (3 min each). Images were captured using a 20X objective (Olympus BX51, Japan) on an epifluorescence microscope. Furthermore, the proteasome activities of tumor xenografts were assayed. Briefly, tumor xenografts were homogenerized in proteasome activity assay buffer using the FastPrep System (MP FastPrep-24, U.S.A), then centrifugation at 4°C for 30 min. The supernatants were then used for assay of proteasome activities using method as described above for analysis of cellular proteasome activities.

[3] = 25mg/kg ip. QD, day 14 after inoculation (start of treatment)
[4] = 25mg/kg ip. QD, day 17 after inoculation
[5] = 25mg/kg ip. QD, day 21 after inoculation
[6] = 25mg/kg ip. QD, day 24 after inoculation
[7] = 25mg/kg ip. QD, day 27 after inoculation
[8] = 25mg/kg ip. QD, day 30 after inoculation
[9] = 50mg/kg ip. QD, day 14 after inoculation (start of treatment)
[10] = 50mg/kg ip. QD, day 17 after inoculation
[11] = 50mg/kg ip. QD, day 21 after inoculation
[12] = 50mg/kg ip. QD, day 24 after inoculation
[13] = 50mg/kg ip. QD, day 27 after inoculation
[14] = 50mg/kg ip. QD, day 30 after inoculation

COc1ccc2cc1Oc1ccc(cc1)C[C@H]1c3cc(c(OC)cc3CCN1C)Oc1c(O)c(OC)cc3c1[C@H](C2)N(C)CC3 [fangchinoline]
IC50 (PC-3 cells [1]; 24 h): 27.5 ± 3.35 µM | IC50 (PC-3 cells [1]; 48 h): 13.1 ± 1.58 µM | IC50 (PC-3 cells [1]; 72 h): 7.25 ± 0.312 µM | Percentage (%) of apoptotic cells (Annexin^+/PI^+) (PC-3 cells [2]; 5 μM): 6.74±1.14 % | Percentage (%) of apoptotic cells (Annexin^+/PI^+) (PC-3 cells [2]; 8 μM): 10.79±0.51 % | Percentage (%) of apoptotic cells (Annexin^+/PI^+) (PC-3 cells [2]; 12 μM): 13.53±0.19 % | Percentage (%) of apoptotic cells (Annexin^+/PI^+) (PC-3 cells [2]; 18 μM): 28.10±5.93 % | Percentage (%) of apoptotic cells (Annexin^+/PI^+) (PC-3 cells [2]; 27 μM): 37.52±4.04 % | Percentage (%) of apoptotic cells (Annexin^+/PI^+) (PC-3 cells [2]; 40 μM): 49.77±2.23 % | Tumor volume (Maximum) (PC-3 tumor xenografts; [3]): 519.59 mm^3 | Tumor volume (Mean ± SEM) (PC-3 tumor xenografts; [3]): 370.0±42.37 mm^3 | Tumor volume (Maximum) (PC-3 tumor xenografts; [4]): 512.11 mm^3 | Tumor volume (Mean ± SEM) (PC-3 tumor xenografts; [4]): 356.5±51.63 mm^3 | Tumor volume (Maximum) (PC-3 tumor xenografts; [5]): 812.68 mm^3 | Tumor volume (Mean ± SEM) (PC-3 tumor xenografts; [5]): 577.7±53.05 mm^3 | Tumor volume (Maximum) (PC-3 tumor xenografts; [6]): 1147.52 mm^3 | Tumor volume (Mean ± SEM) (PC-3 tumor xenografts; [6]): 955.0±78.87 mm^3 | Tumor volume (Maximum) (PC-3 tumor xenografts; [7]): 1439.56 mm^3 | Tumor volume (Mean ± SEM) (PC-3 tumor xenografts; [7]): 1248±50.73 mm^3 | Tumor volume (Maximum) (PC-3 tumor xenografts; [8]): 1655.05 mm^3 | Tumor volume (Mean ± SEM) (PC-3 tumor xenografts; [8]): 1413±61.89 mm^3 | Tumor volume (Maximum) (PC-3 tumor xenografts; [9]): 356.43 mm^3 | Tumor volume (Mean ± SEM) (PC-3 tumor xenografts; [9]): 348.4±3.470 mm^3 | Tumor volume (Maximum) (PC-3 tumor xenografts; [10]): 402.14 mm^3 | Tumor volume (Mean ± SEM) (PC-3 tumor xenografts; [10]): 321.3±21.46 mm^3 | Tumor volume (Maximum) (PC-3 tumor xenografts; [11]): 462.36 mm^3 | Tumor volume (Mean ± SEM) (PC-3 tumor xenografts; [11]): 374.8±37.58 mm^3 | Tumor volume (Maximum) (PC-3 tumor xenografts; [12]): 812.28 mm^3 | Tumor volume (Mean ± SEM) (PC-3 tumor xenografts; [12]): 593.8±593.8 mm^3 | Tumor volume (Maximum) (PC-3 tumor xenografts; [13]): 1008.40 mm^3 | Tumor volume (Mean ± SEM) (PC-3 tumor xenografts; [13]): 857.0±41.00 mm^3 | Tumor volume (Maximum) (PC-3 tumor xenografts; [14]): 1263.09 mm^3 | Tumor volume (Mean ± SEM) (PC-3 tumor xenografts; [14]): 1120±66.28 mm^3 | Growth of PC-3 xenografts (relative tumor volume) (PC-3 tumor xenografts; 25 and 50 mg/kg ip. QD): dose-dependently inhibit | Apoptosis in PC-3 xenografts (TUNEL labeling) (PC-3 tumor xenografts; animals treated with fangchinoline): apoptosis was induced
